In test [1] the test system is breast cancer cell line MX-1. In words: MX-1 cell line proliferation assay, Method A. The test is classed as cell-based. Conditions: Homo sapiens, MX1; MX-1 cells, 96-well, 72 hours, Cell Titer Glo; read-out: Cellular proliferation: EC50 Method A. Summed up:
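MX-1 breast cancer cells (5000/well) were attached overnight in RPMI 1640 with 10% FBS, then exposed for 3 days to compound at 0.0001–3 μM final. Cell Titer Glo luminescence was normalized to DMSO controls, and EC50s were obtained by sigmoidal fitting.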
(ATP-based viability assays read luminescence as a measure of living cells.)

Test [2] addresses T1, BRD4 (BDI_K57-E168) (Homo sapiens, UniProt O60885).
T1 construct: BD1: amino acids K57-E168; made in house
Kind of test: TR-FRET bromodomain binding assay, BRD4 first bromodomain. Conditions: His-tagged BRD4 BD1, 100 nM Alexa647 probe; Ki calculated from IC50, probe Kd and probe concentration. Here is the method: (§1) A time-resolved fluorescence resonance energy transfer (TR-FRET) assay was used to determine the affinities of compounds of the Examples listed in Table 1 for each bromodomain of BRD4. His-tagged first (BD1: amino acids K57-E168) and second (BD2: amino acids E352-E168) bromodomains of BRD4 were expressed and purified. An Alexa647-labeled BET-inhibitor was used as the fluorescent probe in the assay.
(§2) Compound dilution series were prepared in DMSO via a 3-fold serial dilution from 2.5 mM to 42 nM. Compounds were then diluted 6:100 in assay buffer (20 mM Sodium Phosphate, pH 6.0, 50 mM NaCl, 1 mM Ethylenediaminetetraacetic acid disodium salt dihydrate, 0.01% Triton X-100, 1 mM DL-Dithiothreitol) to yield 3× working solutions. Six microliters (μL) of the working solution was then transferred to white, low-volume assay plates (Costar #3673). A 1.5× assay mixture containing His-tagged bromodomain, Europium-conjugated anti-His antibody (Invitrogen PV5596) and the Alexa-647-conjugated probe molecule was also prepared. Twelve μL of this solution were added to the assay plate to reach a final volume of 18 μL. The final concentration of 1× assay buffer contains 2% DMSO, 50 μM-0.85 nM compound, 8 nM His-tagged bromodomain, 1 nM Europium-conjugated anti-His-tag antibody and 100 nM or 30 nM probe (for BDI or BDII, respectively). After a one-hour incubation at room temperature, TR-FRET ratios were determined using an Envision multilabel plate reader (Ex 340, Em […]).
(§3) TR-FRET data were normalized to the means of 24 no-compound controls (“high”) and 8 controls containing 1 μM un-labeled probe (“low”). […] Inhibition constants (Ki) were calculated from the IC50s, probe Kd and probe concentration. […] The minimum significant ratio was determined to evaluate assay reproducibility (Eastwood et al., (2006) J Biomol Screen, 11: 253-261). The MSR was determined to be 2.03 for BDI and 1.93 for BDII, and a moving MSR (last six run MSR overtime) for both BDI and BDII was typically <3.

Test [3] has as its target T2, BRD4 (BDII_E352-M457) (Homo sapiens, UniProt O60885).
T2 construct: made in house
Kind of test: TR-FRET bromodomain binding assay, BRD4 second bromodomain. Conditions: His-tagged BRD4 BD2, 30 nM Alexa647 probe; Ki calculated from IC50, probe Kd and probe concentration. Here is the method: as §1, §2, §3

This is an account of results in US10131657B2, “Bromodomain inhibitors” (AbbVie Inc., priority 2013, dated 2018).

What is called Ki is a measure of affinity in units of concentration, obtained from inhibition or displacement. `Cn1cc(-c2cc(S(C)(=O)=O)ccc2NC2CCN(S(=O)(=O)/C=C/c3ccccc3)CC2)c2cc[nH]c2c1=O` [Example 102, 6-methyl-4-{5-(methylsulfonyl)-2-[(1-{[(E)-2-phenylethenyl]sulfonyl}piperidin-4-yl)amino]phenyl}-1,6-dihydro-7H-pyrrolo[2,3-c]pyridin-7-one]: the EC50 in test [1] came out at 67.3 nM. In addition, the Ki in test [2] was 6 nM; in test [3], 6.8 nM.
